In US20260325654A1, “METHODS AND COMPOSITIONS FOR TARGETED PROTEIN DEGRADATION” (Ranok Therapeutics (Hangzhou) Co. Ltd., priority 2023, published 2026):
Where a name gives a salt, the structure may show the parent alone.

Assays:
AGS = assay: CellTiter-Glo Reagent cancer cell line proliferation assay, AGS; format: cell-based, human; conditions: Homo sapiens, 24 h, KRAS(G12D) heterozygous
Summary of the method: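 Cells were seeded at 4,000 per well, grown 24 hr at 37° C./5% CO2, then exposed 24 hr to 3-fold dilutions from 20 μM to 1.02 nM (0.5% DMSO final). Viability was read with CellTiter-Glo luminescence, and IC50 values were calculated.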

A427 = assay: CellTiter-Glo Reagent cancer cell line proliferation assay, A427; format: cell-based; conditions: Homo sapiens, A-427; A427, KRAS(G12D) heterozygous, 24 hr
Text: (§1) The following cancer cell lines were employed: • AsPC-1 human pancreatic adenocarcinoma, homozygous KRAS(G12D), (ATCC, #CRL-1682); A-427 human lung carcinoma, heterozygous KRAS(G12D), (ATCC, #HTB-53); AGS human gastric adenocarcinoma, heterozygous KRAS(G12D), (ATCC, #CRL-1739); GP2D human colon adenocarcinoma, heterozygous KRAS(G12D), (Sigma Aldrich, 95090714); SW1990 human pancreatic adenocarcinoma, homozygous KRAS(G12D), (ATCC, #CRL2172); LU65A human lung giant cell carcinoma, heterozygous KRAS(G12C), (JCRB Cell Bank, #JCRB0054); NCIH727 human lung carcinoid, heterozygous KRAS(G12V), (ATCC, #CRL-5815); MKN1 human gastric adenosquamous carcinoma KRAS (wt), (JCRB Cell Bank, #JCRB0252). Cell lines were cultured according to ATCC, JCRB and Sigma Aldrich recommendations.
(§2) Cells were plated in 96-well tissue culture plates at 4,000 cells/well and incubated at 37° C./5% CO2 for 24 hr in 100 μl of media. 3-fold serial dilutions of each test compound were prepared ranging from 20 μM to 1.02 nM. Cells were then treated with test compounds at various concentrations with a final concentration of 0.5% DMSO/well, and then incubated at 37° C./5% CO2 for 24 hr. 100 μl of CellTiter-Glo® Reagent (Promega Corporation, Madison, WI) was added to each well and processed according manufacturer's protocol. Results were analyzed and IC50-values were calculated in GraphPad 7 software.

SW1990 = assay: CellTiter-Glo Reagent cancer cell line proliferation assay, SW1990; format: cell-based; conditions: Homo sapiens; SW1990, KRAS(G12D) homozygous, 24 hr
Text: as §1, §2

KRAS(G12D) [1] = molecular target: T1, KRAS(G12D) (Homo sapiens, UniProt P01116, G12D); assay: cell-based; format: cell-based; set-up: Cell lines SW1990 and GP2D that express KRAS(G12D); host or cells: SW1990; conditions: for Dmax: SW1990, read-out: WB data SW1990 DMax; for DC50: read-out: WB data SW1990 DC50, SW1990, KRAS degradation, 24 hr
Description: Cell lines were cultured according to ATCC, JCRB and Sigma Aldrich recommendations.
(§3) Cells were then washed with cold PBS, aspirated and cold RIPA buffer containing a protease/phosphatase inhibitor cocktail was added to lyse cells. After centrifugation, the total protein concentrations of cell lysates were determined using the BCA protein assay. Samples were normalized for equivalent protein concentrations, 5× SDS-PAGE loading buffer added and denatured at 100° C. for 10 min. 20 μl of each sample/well was loaded on a SDS-PAGE gel and electrophoresed for 20 min at 80 V, then 120 V for 1.5 hr. Gels were then electroblotted to nitrocellulose membranes using a wet-transfer method at 250 mA for 2.5 hr. Membranes were incubated with blocking buffer for 1 hr and washed 3 times with TBST for 5 min. Membranes were then incubated with anti-KRAS (Sigma-Aldrich, #SAB1404011) and anti-β-Actin monoclonal antibodies (Cell Signaling Technology, #3700) diluted in blocking buffer at 4° C. overnight per the manufacturer's recommendations. After washing 3 times, blots were incubated with appropriately labeled secondary antibodies for 1 hr at room temperature and washed again. Fluorescence imaging and quantitation was performed using a LI-COR Odyssey. Results was analyzed using GraphPad Prism 7 software. Compound concentrations that induced KRAS degradation (DC50 and DCmax) were calculated using GraphPad Prism 7 software.
Target sequence in this assay (P01116 1-188 isoform P01116-2 G12D): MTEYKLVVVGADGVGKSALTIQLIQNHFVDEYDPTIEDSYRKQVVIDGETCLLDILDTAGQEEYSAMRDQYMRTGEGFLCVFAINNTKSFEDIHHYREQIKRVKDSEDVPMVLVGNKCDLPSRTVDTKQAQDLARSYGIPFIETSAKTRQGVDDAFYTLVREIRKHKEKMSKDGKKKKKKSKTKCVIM

GP2D = assay: CellTiter-Glo Reagent cancer cell line proliferation assay, GP2D; format: cell-based; conditions: Homo sapiens, KRAS(G12D) heterozygous, 24 hr
Text: as §1, §2

KRAS(G12D) [2] = molecular target: T1, KRAS(G12D); assay: KRAS Western Blot Protein Degradation Assay, GP2D; format: cell-based; set-up: Cell lines SW1990 and GP2D that express KRAS(G12D); host or cells: GP2D; conditions: for Dmax: GP2d, read-out: WB data GP2D DMax; for DC50: read-out: WB data GP2D DC50, GP2D, KRAS degradation, 24 hr
Text: as §1
as §3, with “Cell lines SW1990 and GP2D that express KRAS(G12D), LU65A that expresses KRAS(G12C), and NCIH727 that expresses KRAS(G12V) were seeded in 6- or 12-well tissue culture plates, and after 1 hr, test compounds were added at various concentrations and incubated at 37° C./5% CO2 for 24 hr. Cells” for “Cells”
Target sequence in this assay (P01116 1-185 isoform P01116-2 G12D limits assumed): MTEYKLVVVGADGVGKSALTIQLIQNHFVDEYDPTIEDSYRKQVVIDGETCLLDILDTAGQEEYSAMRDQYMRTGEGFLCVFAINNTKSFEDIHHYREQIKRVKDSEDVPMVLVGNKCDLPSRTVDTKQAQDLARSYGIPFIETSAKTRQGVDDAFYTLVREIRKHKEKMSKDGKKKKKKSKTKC

| Compound | IC50 (AGS) | IC50 (A427) | IC50 (SW1990) | Dmax (KRAS(G12D) [1]) | DC50 (KRAS(G12D) [1]) | IC50 (GP2D) | Dmax (KRAS(G12D) [2]) | DC50 (KRAS(G12D) [2]) |
| --- | --- | --- | --- | --- | --- | --- | --- | --- |
| CN1C[C@H](N2CCC(C(=O)NCCOCCOc3ccc4c(c3)C(=O)N(C3CCC(=O)NC3=O)C4=O)CC2)C[C@@H]1COc1nc(N2CC3CCC(C2)N3)c2cnc(-c3cc(O)cc4ccccc34)c(F)c2n1 (stereo partly drawn) [Compound 24] | > 1000 nM | > 1000 nM | – | – | – | – | – | – |
| C#Cc1c(F)ccc2cc(O)cc(-c3ncc4c(N5CC6CCC(C5)N6C(=O)C(F)(F)F)nc(OCC5(CN6CCN(CC7CCN(c8ccc9c(c8)CN(C8CCC(=O)NC8=O)C9=O)CC7)CC6)CC5)nc4c3F)c12 (stereo not drawn) [Compound 78] | – | – | < 100 nM | 10 to 50% | 100 to 1000 nM | – | – | – |
| C#Cc1c(F)ccc2cc(O)cc(-c3ncc4c(N5CC6CCC(C5)N6)nc(OCC5(CN6CCN(CC7CCN(c8ccc9c(=O)n(C%10CCC(=O)NC%10=O)ncc9c8)CC7)CC6)CC5)nc4c3F)c12 (stereo not drawn) [Compound 88] | < 100 nM | – | < 100 nM | 10 to 50% | > 1000 nM | < 100 nM | – | – |
| C#Cc1c(F)ccc2cc(O)cc(-c3ncc4c(N5CC6CCC(C5)N6)nc(OCC5(CN6CCN(CC#Cc7ccc8c(c7)CN(C7CCC(=O)NC7=O)C8=O)CC6)CC5)nc4c3F)c12 (stereo not drawn) [Compound 89] | < 100 nM | – | 100 to 1000 nM | 10 to 50% | > 1000 nM | < 100 nM | – | – |
| C#Cc1c(F)ccc2cc(O)cc(-c3ncc4c(N5C[C@H]6CC[C@@H](C5)N6)nc(OCC5(CN6CC(C#Cc7ccc8c(c7)CN(C7CCC(=O)NC7=O)C8=O)C6)CC5)nc4c3F)c12 (stereo partly drawn) [Compound 90, 3-(5-((1-((1-(((4-((1R,5S)-3,8-diazabicyclo[3.2.1]octan-3-yl)-7-(8-ethynyl-7-fluoro-3-hydroxynaphthalen-1-yl)-8-fluoropyrido[4,3-d]pyrimidin-2-yl)oxy)methyl)cyclopropyl)methyl)azetidin-3-yl)ethynyl)-1-oxoisoindolin-2-yl) piperidine-2,6-dione formate] | < 100 nM | – | < 100 nM | 10 to 50% | > 1000 nM | < 100 nM | – | – |
| C#Cc1c(F)ccc2cc(O)cc(-c3ncc4c(N5CC6CCC(C5)N6)nc(OCC5(CN6CCC(C#Cc7ccc8c(c7)CN(C7CCC(=O)NC7=O)C8=O)CC6)CC5)nc4c3F)c12 (stereo not drawn) [Compound 91] | < 100 nM | – | 100 to 1000 nM | – | – | < 100 nM | – | – |
| C#Cc1c(F)ccc2cc(O)cc(-c3ncc4c(N5C[C@H]6CC[C@@H](C5)N6)nc(OCC5(CN(C)Cc6ccc(C7CN(c8ccc9c(c8)CN(C8CCC(=O)NC8=O)C9=O)C7)cc6)CC5)nc4c3F)c12 (stereo partly drawn) [Compound 92, 3-(5-(3-(4-((((1-(((4-((1R,5S)-3,8-diazabicyclo[3.2.1]octan-3-yl)-7-(8-ethynyl-7-fluoro-3-hydroxynaphthalen-1-yl)-8-fluoropyrido[4,3-d]pyrimidin-2-yl)oxy)methyl)cyclopropyl)methyl)(methyl)amino)methyl)phenyl)azetidin-1-yl)-1-oxoisoindolin-2-yl) piperidine-2,6-dione formate] | < 100 nM | – | < 100 nM | – | – | < 100 nM | – | – |
| O=CO.[2H]C([2H])([2H])Oc1nc(-c2cc(O)cc3ccc(F)c(C#C)c23)c(F)c2nc(OCC3(CN4CCN(CC5CCN(c6ccc7c(c6)CN(C6CCC(=O)NC6=O)C7=O)CC5)CC4)CC3)nc(N3CC4CCC(C3)N4CC#N)c12 (stereo not drawn) [Compound 94] | < 100 nM | – | – | – | – | < 100 nM | > 50% | < 100 nM |
| O=CO.[2H]C([2H])([2H])Oc1nc(-c2cc(O)cc3ccc(F)c(C#C)c23)c(F)c2nc(OCC3(CN4CCN(CC5CCN(c6ccc7c(c6)CN(C6CCC(=O)NC6=O)C7=O)CC5)CC4)CC3)nc(N3CC4CCC(C3)N4CCC#N)c12 (stereo not drawn) [Compound 95] | 100 to 1000 nM | – | – | – | – | < 100 nM | < 10% | > 1000 nM |
| [2H]C([2H])([2H])Oc1nc(-c2cc(O)cc3ccc(F)c(C#C)c23)c(F)c2nc(OCC3(CN4CCN(CC5CCN(c6ccc7c(c6)CN(C6CCC(=O)NC6=O)C7=O)CC5)CC4)CC3)nc(N3CC4CCC(C3)N4CC(C)C)c12 (stereo not drawn) [Compound 96] | > 1000 nM | – | – | – | – | 100 to 1000 nM | 10 to 50% | > 1000 nM |
| [2H]C([2H])([2H])Oc1nc(-c2cc(O)cc3ccc(F)c(C#C)c23)c(F)c2nc(OCC3(CN4CCN(CC5CCN(c6ccc7c(c6)CN(C6CCC(=O)NC6=O)C7=O)CC5)CC4)CC3)nc(N3CC4CCC(C3)N4CC(F)(F)F)c12 (stereo not drawn) [Compound 97] | 100 to 1000 nM | – | – | – | – | 100 to 1000 nM | 10 to 50% | > 1000 nM |
| O=CO.[2H]C([2H])([2H])Oc1nc(-c2cc(O)cc3ccc(F)c(C#C)c23)c(F)c2nc(OCC3(CN4CCN(CC5CCN(c6ccc7c(c6)CN(C6CCC(=O)NC6=O)C7=O)CC5)CC4)CC3)nc(N3CC4CCC(C3)N4CCO)c12 (stereo not drawn) [Compound 98] | < 100 nM | – | – | – | – | < 100 nM | > 50% | < 100 nM |
| C#Cc1c(F)ccc2cc(O)cc(-c3nc(OC)c4c(N5CC6CCC(C5)N6CC#N)nc(OCC5(CN6CCN(CC7CCN(c8ccc9c(c8)CN(C8CCC(=O)NC8=O)C9=O)CC7)CC6)CC5)nc4c3F)c12 (stereo not drawn) [Compound 100, 2-(3-(2-((1-((4-((1-(2-(2,6-dioxopiperidin-3-yl)-1-oxoisoindolin-5-yl)piperidin-4-yl)methyl)piperazin-1-yl)methyl)cyclopropyl)methoxy)-7-(8-ethynyl-7-fluoro-3-hydroxynaphthalen-1-yl)-8-fluoro-5-methoxypyrido[4,3-d]pyrimidin-4-yl)-3,8-diazabicyclo[3.2.1]octan-8-yl) acetonitrile formate] | < 100 nM | – | – | – | – | < 100 nM | > 50% | < 100 nM |
| C#Cc1c(F)ccc2cc(O)cc(-c3ncc4c(N5CC6CCC(C5)N6CC#N)nc(OCC5(CN6CCN(CC7CCN(c8ccc9c(c8)CN(C8CCC(=O)NC8=O)C9=O)CC7)CC6)CC5)nc4c3F)c12 (stereo not drawn) [Compound 101] | < 100 nM | – | – | – | – | < 100 nM | > 50% | < 100 nM |
